Source: US20140113947A1, “PHARMACEUTICAL CREAM COMPOSITIONS OF OXYMETAZOLINE AND METHODS OF USE” (Allergan, Inc., priority 2011, published 2014)

Legend:
[1] = In vitro permeation (Hanson Microette Franz Cell), flux across cellulose acetate membrane; format: in vitro ADME
Protocol: An in vitro permeation procedure for oxymetazoline cream was developed using the 0.01 and 0.10% w/w oxymetazoline cream. The in vitro experiments were conducted using Hanson Microette Franz Cell apparatus and 0.01N PBS (pH 7.4) as the receiving medium. Other critical parameters were evaluated such as the type of semi-synthetic membrane, sample timing (time dependent release-permeability profile), method sensitivity, specificity and linearity. Permeation characterization of oxymetazoline cream of different strengths (0.01% w/w, 0.05% w/w, 0.10% w/w and 0.15% w/w) was based on flux study across two different artificial membranes (cellulose acetate and polysulfone). The concentration of oxymetazoline which permeated through the membranes was measured using an HPLC assay.

[2] = In vitro permeation (Hanson Microette Franz Cell), flux across polysulfone membrane; format: in vitro ADME
Protocol: An in vitro permeation procedure for oxymetazoline cream was developed using the 0.01 and 0.10% w/w oxymetazoline cream. The in vitro experiments were conducted using Hanson Microette Franz Cell apparatus and 0.01N PBS (pH 7.4) as the receiving medium. Other critical parameters were evaluated such as the type of semi-synthetic membrane, sample timing (time dependent release-permeability profile), method sensitivity, specificity and linearity.
Permeation characterization of oxymetazoline cream of different strengths (0.01% w/w, 0.05% w/w, 0.10% w/w and 0.15% w/w) was based on flux study across two different artificial membranes (cellulose acetate and polysulfone). The concentration of oxymetazoline which permeated through the membranes was measured using an HPLC assay.

[3] = concentration range 0.01-0.10% w/w
[4] = creams 0.01-0.15% w/w, dump and die profile

concentration level above which in vitro membrane transport reached saturation [1]: > 0.1 % w/w
Oxymetazoline permeability (AUC0-24h) as a function of concentration [1, 3]: linearly increased
time of peak of oxymetazoline permeation rate after cream application [1, 4]: 0.5 h
concentration level above which in vitro membrane transport reached saturation [2]: > 0.1 % w/w
Oxymetazoline permeability (AUC0-24h) as a function of concentration [2, 3]: linearly increased
time of peak of oxymetazoline permeation rate after cream application [2, 4]: 0.5 h
Structure (SMILES): Cc1cc(C(C)(C)C)c(O)c(C)c1CC1=NCCN1 [oxymetazoline, 3-(4,5-dihydro-1H-imidazol-2-ylmethyl)-2,4-dimethyl-6-tert-butyl-phenol]
